Experimental data reported in patent US20240277713A1 (Kadmon Corporation, LLC, priority 2022, published 2024).
Marks after values point to notes of the source that are not given here.

Test system: New Zealand White rabbits
Experiment: Embryo-fetal developmental toxicity study in New Zealand White rabbits (Example 4);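 further: dams given a detailed clinical exam daily GD 6 to 29, about 4 h after dosing, then laparohysterectomy on GD 29 with external, visceral and skeletal fetal examination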

For `CC(C)NC(=O)COc1cccc(-c2nc(Nc3ccc4[nH]ncc4c3)c3ccccc3n2)c1` [belumosudil, 2-{3-[4-(1H-indazol-5-ylamino)-2-quinazolinyl]phenoxy}-N-(propan-2-yl) acetamide], the “Fetal External Malformation: Short Tail, No. Fetuses (incidence)” value (50 mg base/kg/day) was 0 (0.0), the “Fetal External Malformation: Short Tail, No. Litters (incidence)” value (50 mg base/kg/day) was 0 (0.0) and the “Fetal External Malformations, No. Fetuses (incidence)” value (50 mg base/kg/day) was 1 (0.5). For the same molecule, the “Fetal External Malformations, No. Litters (incidence)” value (50 mg base/kg/day) was 1 (4.5), the “Fetal Skeletal Malformations, No. Fetuses (incidence)” value (50 mg base/kg/day) was 8 (4.3) and the “Fetal Skeletal Malformations, No. Litters (incidence)” value (50 mg base/kg/day) was 6 (27.3). For the same molecule, the “Fetal Visceral Variations, No. Fetuses (incidence)” value (50 mg base/kg/day) was 6 (3.2), the “Fetal Visceral Variations, No. Litters (incidence)” value (50 mg base/kg/day) was 4 (18.2) and the “Maternal Food Consumption GD 0-29” value (50 mg base/kg/day) was 141.1. The “Maternal Food Consumption GD 6-10” value (50 mg base/kg/day) was 149.4, the “Maternal Food Consumption GD 6-19” value (50 mg base/kg/day) was 142.7 and the “Maternal Food Consumption GD 6-19, % Difference From Control” value (50 mg base/kg/day) was −8.8%. For the same molecule, the “Maternal Food Consumption GD 19-29” value (50 mg base/kg/day) was 136.0, the “Mean Fetal Body Weight Females” value (50 mg base/kg/day) was 40.25 g and the “Mean Fetal Body Weight Genders Combined” value (50 mg base/kg/day) was 40.97 g. For the same molecule, the “Mean Fetal Body Weight Males” value (50 mg base/kg/day) was 41.64 g, the “Mean Live Litter Size” value (50 mg base/kg/day) was 8.5 and the “Mean Number of Early Resorptions” value (50 mg base/kg/day) was 0.2. For the same molecule, the “Mean Number of Resorptions (Combined)” value (50 mg base/kg/day) was 0.2, the “Mean Postimplantation Loss” value (50 mg base/kg/day) was 2.42 %/Litter and the “Number Litters with Viable Fetuses GD29” value (50 mg base/kg/day) was 22. For the same molecule, the “Number with All Resorptions GD29” value (50 mg base/kg/day) was 0, the “Number Aborted” value (50 mg base/kg/day, 23 females) was 0 and the “Number Litters with Viable Fetuses GD29” value (50 mg base/kg/day, 23 females) was 22. The “Number Not Pregnant” value (50 mg base/kg/day, 23 females) was 1, the “Number with All Resorptions GD29” value (50 mg base/kg/day, 23 females) was 0 and the “Activity decreased, times observed/animals affected” value (50 mg base/kg/day, GD 0-29) was 0/0. The “Feces few/absent, times observed/animals affected” value (50 mg base/kg/day, GD 0-29) was 0/0, the “Hair discolored, Brown, Anogenital region, times observed/animals affected” value (50 mg base/kg/day, GD 0-29) was 0/0 and the “Hair discolored, Brown, Ear/left, times observed/animals affected” value (50 mg base/kg/day, GD 0-29) was 12/1. The “Hair discolored, Brown, Ear/right, times observed/animals affected” value (50 mg base/kg/day, GD 0-29) was 12/1, the “Hair discolored, Brown, Face, times observed/animals affected” value (50 mg base/kg/day, GD 0-29) was 24/3 and the “Hair discolored, Brown, Hind limb/left, times observed/animals affected” value (50 mg base/kg/day, GD 0-29) was 3/1. The “Hair discolored, Red, Anogenital region, times observed/animals affected” value (50 mg base/kg/day, GD 0-29) was 0/0, the “Hair discolored, Red, Face, times observed/animals affected” value (50 mg base/kg/day, GD 0-29) was 0/0 and the “Hair discolored, Red, Forelimb/left, times observed/animals affected” value (50 mg base/kg/day, GD 0-29) was 1/1. The “Hair discolored, Red, Thoracic region, times observed/animals affected” value (50 mg base/kg/day, GD 0-29) was 1/1, the “Hair discolored, Yellow, Ear/right, times observed/animals affected” value (50 mg base/kg/day, GD 0-29) was 0/0 and the “Hair discolored, Yellow, Face, times observed/animals affected” value (50 mg base/kg/day, GD 0-29) was 27/2. For the same molecule, the “Hair sparse, Anogenital region, times observed/animals affected” value (50 mg base/kg/day, GD 0-29) was 0/0, the “Hair sparse, Axillary region/left, times observed/animals affected” value (50 mg base/kg/day, GD 0-29) was 0/0 and the “Hair sparse, Axillary region/right, times observed/animals affected” value (50 mg base/kg/day, GD 0-29) was 0/0. The “Hair sparse, Cervical region, times observed/animals affected” value (50 mg base/kg/day, GD 0-29) was 0/0, the “Hair sparse, Ear/left, times observed/animals affected” value (50 mg base/kg/day, GD 0-29) was 0/0 and the “Hair sparse, Ear/right, times observed/animals affected” value (50 mg base/kg/day, GD 0-29) was 0/0. The “Hair sparse, Forefoot/left, times observed/animals affected” value (50 mg base/kg/day, GD 0-29) was 5/1, the “Hair sparse, Forefoot/right, times observed/animals affected” value (50 mg base/kg/day, GD 0-29) was 4/1 and the “Hair sparse, Forelimb/left, times observed/animals affected” value (50 mg base/kg/day, GD 0-29) was 5/1. For the same molecule, the “Hair sparse, Hind limb/left, times observed/animals affected” value (50 mg base/kg/day, GD 0-29) was 5/1, the “Hair sparse, Inguinal region/right, times observed/animals affected” value (50 mg base/kg/day, GD 0-29) was 0/0 and the “Hair sparse, Shoulder/left, times observed/animals affected” value (50 mg base/kg/day, GD 0-29) was 0/0. The “Hair sparse, Thoracic region, times observed/animals affected” value (50 mg base/kg/day, GD 0-29) was 0/0, the “Hair sparse, Ventral surface, times observed/animals affected” value (50 mg base/kg/day, GD 0-29) was 0/0 and the “Material in pan/bedding, Red, times observed/animals affected” value (50 mg base/kg/day, GD 0-29) was 0/0. The “Nail missing, Forefoot/left, times observed/animals affected” value (50 mg base/kg/day, GD 0-29) was 1/1, the “Scabbed area, Ear/left, times observed/animals affected” value (50 mg base/kg/day, GD 0-29) was 0/0 and the “Scabbed area, Nose/muzzle, times observed/animals affected” value (50 mg base/kg/day, GD 0-29) was 0/0. The “Skin discolored, Pale, Entire body, times observed/animals affected” value (50 mg base/kg/day, GD 0-29) was 0/0, the “Swelling, Nose/muzzle, times observed/animals affected” value (50 mg base/kg/day, GD 0-29) was 0/0 and the “Swelling, Vulva, times observed/animals affected” value (50 mg base/kg/day, GD 0-29) was 3/1. The “Thin, times observed/animals affected” value (50 mg base/kg/day, GD 0-29) was 0/0, the “Fetal External Malformation: Short Tail, No. Fetuses (incidence)” value (125 mg base/kg/day) was 0 (0.0) and the “Fetal External Malformation: Short Tail, No. Litters (incidence)” value (125 mg base/kg/day) was 0 (0.0). The “Fetal External Malformations, No. Fetuses (incidence)” value (125 mg base/kg/day) was 0 (0.0), the “Fetal External Malformations, No. Litters (incidence)” value (125 mg base/kg/day) was 0 (0.0) and the “Fetal Skeletal Malformations, No. Fetuses (incidence)” value (125 mg base/kg/day) was 10 (6.6). For the same molecule, the “Fetal Skeletal Malformations, No. Litters (incidence)” value (125 mg base/kg/day) was 6 (31.6), the “Fetal Visceral Variations, No. Fetuses (incidence)” value (125 mg base/kg/day) was 11 (7.2) and the “Fetal Visceral Variations, No. Litters (incidence)” value (125 mg base/kg/day) was 7 (36.8). For the same molecule, the “Maternal Body Weight Change GD 0-29, % Difference From Control” value (125 mg base/kg/day) was −8.6%, the “Maternal Body Weight GD 19, % Difference From Control” value (125 mg base/kg/day) was −5.1% and the “Maternal Food Consumption GD 0-29” value (125 mg base/kg/day) was 128.8. For the same molecule, the “Maternal Food Consumption GD 0-29, % Difference From Control” value (125 mg base/kg/day) was −11.6%, the “Maternal Food Consumption GD 6-10” value (125 mg base/kg/day) was 117.9^b and the “Maternal Food Consumption GD 6-19” value (125 mg base/kg/day) was 103.1. The “Maternal Food Consumption GD 6-19, % Difference From Control” value (125 mg base/kg/day) was −34.1%, the “Maternal Food Consumption GD 19-29” value (125 mg base/kg/day) was 149.9^a and the “Mean Fetal Body Weight Females” value (125 mg base/kg/day) was 41.14 g. The “Mean Fetal Body Weight Genders Combined” value (125 mg base/kg/day) was 41.09 g, the “Mean Fetal Body Weight Males” value (125 mg base/kg/day) was 41.61 g and the “Mean Live Litter Size” value (125 mg base/kg/day) was 8.0. The “Mean Number of Early Resorptions” value (125 mg base/kg/day) was 0.5, the “Mean Number of Resorptions (Combined)” value (125 mg base/kg/day) was 0.7 and the “Mean Postimplantation Loss” value (125 mg base/kg/day) was 7.42 %/Litter. For the same molecule, the “Number Litters with Viable Fetuses GD29” value (125 mg base/kg/day) was 19, the “Number with All Resorptions GD29” value (125 mg base/kg/day) was 0 and the “ureter malpositioned, litter incidence” value (125 mg base/kg/day) was 21.1%. The “Number Aborted” value (125 mg base/kg/day, 23 females) was 1, the “Number Litters with Viable Fetuses GD29” value (125 mg base/kg/day, 23 females) was 19 and the “Number Not Pregnant” value (125 mg base/kg/day, 23 females) was 3. For the same molecule, the “Number with All Resorptions GD29” value (125 mg base/kg/day, 23 females) was 0, the “Activity decreased, times observed/animals affected” value (125 mg base/kg/day, GD 0-29) was 0/0 and the “Feces few/absent, times observed/animals affected” value (125 mg base/kg/day, GD 0-29) was 0/0. For the same molecule, the “Hair discolored, Brown, Anogenital region, times observed/animals affected” value (125 mg base/kg/day, GD 0-29) was 7/1, the “Hair discolored, Brown, Ear/left, times observed/animals affected” value (125 mg base/kg/day, GD 0-29) was 0/0 and the “Hair discolored, Brown, Ear/right, times observed/animals affected” value (125 mg base/kg/day, GD 0-29) was 0/0. The “Hair discolored, Brown, Face, times observed/animals affected” value (125 mg base/kg/day, GD 0-29) was 0/0, the “Hair discolored, Brown, Hind limb/left, times observed/animals affected” value (125 mg base/kg/day, GD 0-29) was 0/0 and the “Hair discolored, Red, Anogenital region, times observed/animals affected” value (125 mg base/kg/day, GD 0-29) was 1/1. The “Hair discolored, Red, Face, times observed/animals affected” value (125 mg base/kg/day, GD 0-29) was 2/1, the “Hair discolored, Red, Forelimb/left, times observed/animals affected” value (125 mg base/kg/day, GD 0-29) was 0/0 and the “Hair discolored, Red, Thoracic region, times observed/animals affected” value (125 mg base/kg/day, GD 0-29) was 0/0. The “Hair discolored, Yellow, Ear/right, times observed/animals affected” value (125 mg base/kg/day, GD 0-29) was 0/0, the “Hair discolored, Yellow, Face, times observed/animals affected” value (125 mg base/kg/day, GD 0-29) was 10/1 and the “Hair sparse, Anogenital region, times observed/animals affected” value (125 mg base/kg/day, GD 0-29) was 15/2. For the same molecule, the “Hair sparse, Axillary region/left, times observed/animals affected” value (125 mg base/kg/day, GD 0-29) was 2/1, the “Hair sparse, Axillary region/right, times observed/animals affected” value (125 mg base/kg/day, GD 0-29) was 2/1 and the “Hair sparse, Cervical region, times observed/animals affected” value (125 mg base/kg/day, GD 0-29) was 1/1. For the same molecule, the “Hair sparse, Ear/left, times observed/animals affected” value (125 mg base/kg/day, GD 0-29) was 0/0, the “Hair sparse, Ear/right, times observed/animals affected” value (125 mg base/kg/day, GD 0-29) was 0/0 and the “Hair sparse, Forefoot/left, times observed/animals affected” value (125 mg base/kg/day, GD 0-29) was 0/0.
